Type in all cases: cell-based
Experiment [1] deals with NCI-H460. The experiment in a line: Viability assay with NCI-H460 (CellTiter-Glo cytotoxicity assay, 72 h). Conditions: NCI-H460 cell line, 72 h after compounds addition. In short, it runs like this:
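NCI-H460 cells, RPMI 1640 + 10% FBS, seeded 1200/well and adhered overnight, then exposed to compounds at 9 points, 2-fold dilution, in triplicate, 0.5% DMSO final. Cellular ATP measured by CellTiter-Glo luminescence 72 h after addition.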

Experiment [2] deals with MIA PaCa-2. The experiment in a line: Viability assay with MIA PaCa-2. Conditions: MIA PaCa-2, viability assay per Example 57. Put shortly: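 MIA PaCa-2 cells were seeded at 1200/well, allowed to adhere overnight, then treated in triplicate with 9-point 2-fold compound dilutions at 0.5% final DMSO. Viability was measured as cellular ATP by CellTiter-Glo luminescence 72 h after compound addition.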

For experiment [3], the system named is U2OS. The experiment in a line: Viability assay with U2OS. Conditions: viability assay per Example 57. Here is the method: (§1) NCI-H460 (Epithelial lung tissue; carcinoma; large cell lung cancer) were cultured in RPMI Medium 1640 (Invitrogen-22400105) supplemented with 10% fetal bovine serum (FBS; Invitrogen-10099141). All the cell lines were maintained in a humidified incubator at 37° C. with 5% CO2. Cell culture media and supplements were purchased from Invitrogen, and tissue culture flasks were purchased from Corning, 96-well plates were purchased from Greiner. CellTiter-Glo Luminescent Cell Viability Assay kits were purchased from Promega (Promega-G7573), cells counter Vi-Cell was purchased from Beckman, D300e digital dispenser was purchased from Tecan, detection instrument Envision was purchased from PerkinElmer.
(§2) Paclitaxel was purchased from SELLECK, test compounds, such as any one of the compounds disclosed herein, attained solubility in DMSO and when diluted into culture media. DMSO, solutions containing the test compounds, and culture media were warmed to 37° C. or room temperature for the solution preparation and dilutions.
(§3) NCI-H460 Cell line were seeded in 96-well plates (1200/well) and allowed to adhere to overnight (100 uL/well), for drug treatments with 2 fold dilution, 9 dose points, triplicates or vehicle control, compound stock solutions were prepared in DMSO and use D300e digital dispenser to add compounds to the wells to give the indicated final drug concentrations. Final DMSO concentration was 0.5%. Cellular ATP concentrations were assessed by using the CellTiter-Glo Cell Viability Assay as per the manufacturer's instructions 72 h after compounds addition. Additional cells lines were assayed with any one of the compounds disclosed herein according to the procedures described for the viability assay with NCI-H460.
The viability assay with U2OS (epithelial bone tissue; osteosarcoma) was performed with compounds listed in Table 17 according to the procedures described in Example 57.

Experiment [4] has as its system NCI-H2023. The experiment in a line: Viability assay with NCI-H2023. Conditions: NCI-H2023, viability assay per Example 57. Here is the method:
as §1, §2, §3
A viability assay with NCI-H2023 (stage 3A, adenocarcinoma; non-small cell lung cancer) was performed with compounds listed in Table 16 according to the procedures described in Example 57.

The subject of experiment [5] is HT-29. The experiment in a line: Viability assay with HT-29. Particulars: HT-29, viability assay per Example 57. In short, it runs like this: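 Cells seeded 1200/well, adhered overnight, then treated with 9-point 2-fold compound dilutions in triplicate (0.5% final DMSO). Viability taken as cellular ATP by CellTiter-Glo luminescence 72 h after compound addition.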

Where a name gives a salt, the structure may show the parent alone.

Regarding `COc1ccc(F)c(CN2CCN(Cc3ccc4c(c3)c(-c3ccc(OC(F)(F)F)cc3)cn4CCCN)CC2)c1` [C1; HCl], the EC50 in experiment [1], in experiment [2] and in experiment [3] was at most 5 µM each time.
For `COc1ccccc1-c1cn(CCCN)c2ccc(CN3CCN(Cc4c(Cl)cccc4Cl)CC3)cc12` [C2; HCl], the 50% effective concentration (EC50) in experiment [1], in experiment [2] and in experiment [3] was at most 5 µM throughout.
Regarding `NCCCn1cc(-c2ccc(OC(F)(F)F)cc2)c2cc(CN3CCC(Cc4ccccc4Cl)CC3)ccc21` [C3; HCl], the 50% effective concentration (EC50) in experiment [1], in experiment [2] and in experiment [3] was at most 5 µM throughout.
With `N#Cc1cccc(-c2cccc(Cl)c2CN2CCN(Cc3ccc4c(c3)c(-c3cccc(C#N)c3)cn4CCCN)CC2)c1` [C4; HCl], the EC50 in experiment [1], in experiment [2] and in experiment [3] was at most 5 µM throughout.
Consider `NCCCn1cc(-c2ccc(OC(F)(F)F)cc2)c2cc(CN3CCC4(CC3)CCN(Cc3ccccc3Cl)C4)ccc21` [C5; HCl], for which the EC50 in experiment [1], in experiment [2] and in experiment [3] was at most 5 µM each time.
As to `NCCN(CCN)CCCn1cc(-c2ccc(OC(F)(F)F)cc2)c2cc(CN3CCN(Cc4c(Cl)cccc4Cl)CC3)ccc21` [C7; Formic acid], the EC50 in experiment [1], in experiment [2] and in experiment [3] was at most 5 µM throughout.
On to `N#Cc1ccccc1-c1cn(CCCN)c2ccc(CN3CCN(Cc4c(Cl)cccc4Cl)CC3)cc12` [C8; HCl], for which the EC50 in experiment [1], in experiment [2] and in experiment [3] was at most 5 µM throughout.
For `NCCCn1cc(-c2ccc(OC(F)(F)F)cc2)c2cc(CN3CCN(Cc4cccc(Cl)c4)CC3)ccc21` [C9; HCl], the EC50 in experiment [1], in experiment [2] and in experiment [3] was at most 5 µM in each case.
With `NCCCn1cc(-c2ccc(CN)cc2)c2cc(CN3CCN(Cc4c(Cl)cccc4Cl)CC3)ccc21` [C10; Formic acid], the EC50 in experiment [1], in experiment [2] and in experiment [3] was at most 5 µM in each case.
For the compound `COc1cc(CN2CCN(Cc3ccc4c(c3)c(-c3ccc(OC(F)(F)F)cc3)cn4CCCN)CC2)cc(OC)c1` [C11; HCl], the EC50 in experiment [1], in experiment [2] and in experiment [3] was at most 5 µM throughout.
Consider `COc1cccc(CN2CCN(Cc3ccc4c(c3)c(-c3ccc(OC(F)(F)F)cc3)cn4CCCN)CC2)c1Cl` [C12; HCl], for which the EC50 in experiment [1], in experiment [2] and in experiment [3] was at most 5 µM each time.
Regarding `COc1ccc(-c2cn(CCCN)c3ccc(CN4CCN(Cc5c(Cl)cccc5Cl)CC4)cc23)cc1` [C22; Formic acid], the half-maximal effective concentration (EC50) in experiment [1], in experiment [2], in experiment [4] and in experiment [3] was at most 5 µM each time.
Take `NCCCCn1cc(-c2ccc(OC(F)(F)F)cc2)c2cc(CN3CCN(Cc4c(Cl)cccc4Cl)CC3)ccc21` [C43; HCl]: the EC50 in experiment [1], in experiment [2], in experiment [4] and in experiment [3] was at most 5 µM throughout.
For `NCCCn1cc(-c2ccc(OC(F)(F)F)cc2)c2cc(CN3CCN(Cc4cccc(C(F)(F)F)c4Cl)CC3)ccc21` [C155; HCl], the 50% effective concentration (EC50) in experiment [1], in experiment [2] and in experiment [3] was at most 5 µM throughout.
On to `NCCCn1cc(-c2ccc(OC(F)(F)F)cc2)c2cc(CN3CCN(Cc4cc(Cl)ccc4Cl)CC3)ccc21` [C156; HCl], for which the concentration giving a half-maximal response (EC50) in experiment [5], in experiment [1], in experiment [2] and in experiment [3] was at most 5 µM throughout.
`CCc1ccc(-c2cn(CCCN)c3ccc(CN4CC5CCC(C4)N5Cc4ccccc4Cl)cc23)cc1` [C157; HCl]: the concentration for a half-maximal effect (EC50) in experiment [1], in experiment [2] and in experiment [3] was at most 5 µM each time.
Turning to `COc1ccc(-c2cn(CCCN)c3ccc(CN4CC5CCC(C4)N5Cc4ccccc4Cl)cc23)cc1` [C158; HCl], the concentration for a half-maximal effect (EC50) in experiment [1], in experiment [2] and in experiment [3] was at most 5 µM throughout.
As to `NCCCn1cc(-c2ccc(OC(F)(F)F)cc2)c2cc(CC3CCN(Cc4ccccc4Cl)CC3)ccc21` [C159; HCl], the EC50 in experiment [1], in experiment [2] and in experiment [3] was at most 5 µM in each case.
Regarding `NCCCn1cc(-c2ccc(OC(F)(F)F)cc2)c2cc(CN3CCN(CC(F)(F)F)CC3)ccc21` [C160; HCl], the 50% effective concentration (EC50) in experiment [1], in experiment [2] and in experiment [3] was at most 5 µM throughout.
As to `NCCCn1cc(-c2ccccc2CN)c2cc(CN3CCN(Cc4c(Cl)cccc4Cl)CC3)ccc21` [C162; HCl], the EC50 in experiment [5] and in experiment [3] was at most 5 µM throughout.
On to `NCCCn1cc(-c2ccc(OC(F)(F)F)cc2)c2cc(CN3CCN(Cc4cccc(OC(F)(F)F)c4)CC3)ccc21` [C163; HCl], for which the EC50 in experiment [1], in experiment [2] and in experiment [3] was at most 5 µM each time.
Take `NCCCn1cc(-c2ccc(OC(F)(F)F)cc2)c2cc(CN3CCN(Cc4cccc(Cl)c4Cl)CC3)ccc21` [C164; HCl]: the EC50 in experiment [1], in experiment [2] and in experiment [3] was at most 5 µM in each case.
On to `NCCCn1cc(-c2ccc(OC(F)(F)F)cc2)c2cc(CN3CCN(Cc4cc(F)ccc4Cl)CC3)ccc21` [C165; HCl], for which the EC50 in experiment [1], in experiment [2] and in experiment [3] was at most 5 µM each time.
Take `CC(C)(c1ccccc1Cl)N1CCN(Cc2ccc3c(c2)c(-c2ccc(OC(F)(F)F)cc2)cn3CCCN)CC1` [C166; Formic Acid]: the EC50 in experiment [5], in experiment [1], in experiment [2] and in experiment [3] was at most 5 µM throughout.
Consider `NCCCn1cc(-c2ccccc2Cl)c2cc(CN3CCN(Cc4c(Cl)cccc4Cl)CC3)ccc21` [C167; HCl], for which the EC50 in experiment [1], in experiment [2] and in experiment [3] was at most 5 µM each time.
In the case of `NCCCn1cc(-c2cccc(CN)c2)c2cc(CN3CCN(Cc4c(Cl)cccc4Cl)CC3)ccc21` [C168; HCl], the EC50 in experiment [5], in experiment [1], in experiment [2] and in experiment [3] was at most 5 µM each time.
With `NCCCn1cc(-c2ccc(OC(F)(F)F)cc2)c2cc(CN3CCC4(CCN(Cc5ccccc5Cl)CC4)C3)ccc21` [C169; HCl], the EC50 in experiment [5], in experiment [1], in experiment [2] and in experiment [3] was at most 5 µM each time.
For `CN(CCN(C)Cc1ccccc1Cl)Cc1ccc2c(c1)c(-c1ccc(OC(F)(F)F)cc1)cn2CCCN` [C172; HCl], the concentration giving a half-maximal response (EC50) in experiment [1], in experiment [2] and in experiment [3] was at most 5 µM each time.
Consider `CN(CCNCc1ccc2c(c1)c(-c1ccc(OC(F)(F)F)cc1)cn2CCCN)Cc1ccccc1Cl` [C173; HCl], for which the EC50 in experiment [1], in experiment [2] and in experiment [3] was at most 5 µM throughout.
As for `OCCNCCCn1cc(-c2ccc(OC(F)(F)F)cc2)c2cc(CN3CCN(Cc4c(Cl)cccc4Cl)CC3)ccc21` [Compound C20, 2-(3-(5-((4-(2,6-dichlorobenzyl)piperazin-1-yl)methyl)-3-(4-(trifluoromethoxy)phenyl)-1H-indol-1-yl)propylamino)ethanol], the EC50 in experiment [1] (Homo sapiens), in experiment [2] (Homo sapiens) and in experiment [4] was at most 5 µM in each case.
`CCOC(=O)CNCCCn1cc(-c2ccc(OC(F)(F)F)cc2)c2cc(CN3CCN(Cc4c(Cl)cccc4Cl)CC3)ccc21` [Compound C28, ethyl 2-(3-(5-((4-(2,6-dichlorobenzyl)piperazin-1-yl)methyl)-3-(4-(trifluoromethoxy)phenyl)-1H-indol-1-yl)propylamino)acetate]: the results for the concentration for a half-maximal effect (EC50) in experiment [1] (Homo sapiens), in experiment [2] (Homo sapiens) and in experiment [4] were 5 to 10 µM, at most 5 µM and 5 to 10 µM, respectively.

The record behind these values is patent US20170158702A1, “MULTIVALENT RAS BINDING COMPOUNDS” (KYRAS THERAPEUTICS, INC., priority 2015, published 2017).
